Experimental data as given in ChEMBL document CHEMBL1145182, “Molecular dynamics simulations of the TEM-1 beta-lactamase complexed with cephalothin” (J Med Chem, 2005).

Molecular target: Beta-lactamase TEM (Escherichia coli) (UniProt P62593)
Assay: Rate of catalysis against TEM-1 beta-lactamase

Sequence of Beta-lactamase TEM (Escherichia coli) (P62593 whole entry): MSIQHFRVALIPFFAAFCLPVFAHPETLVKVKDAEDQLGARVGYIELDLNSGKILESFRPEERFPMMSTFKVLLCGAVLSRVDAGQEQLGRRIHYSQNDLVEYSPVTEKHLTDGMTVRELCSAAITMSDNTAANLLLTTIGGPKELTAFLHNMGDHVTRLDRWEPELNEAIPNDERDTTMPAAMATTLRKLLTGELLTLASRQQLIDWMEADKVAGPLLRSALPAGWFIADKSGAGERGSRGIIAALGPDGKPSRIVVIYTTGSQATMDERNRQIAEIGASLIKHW

CC1(C)S[C@@H]2[C@H](NC(=O)Cc3ccccc3)C(=O)N2[C@H]1C(=O)O
K cat: 1280 1/S

CC(=O)OCC1=C(C(=O)O)N2C(=O)[C@@H](NC(=O)Cc3cccs3)[C@H]2SC1
K cat: 115 1/S
